# Laboratory results reported in paper PMC4142417, “Epigenetic Impacts of Ascorbate on Human Metastatic Melanoma Cells” (Frontiers in Oncology, 2014).
# pIC50: −log10 of the molar value. Where two headings read alike, the source gives them in different places.
# What was measured:
# BLM melanoma cells = experiment: Cell-cycle analysis (propidium iodide, FACS); type: cell-based, human; conditions: 8 mM for 1 h
# Method: BLM cells were incubated with ascorbate at 8 mM. After 0–24 h (in 2 h intervals) the cells (1 × 10^6) were harvested, washed with cold PBS, fixed with 75% ethanol, and incubated at 4°C for at least 1 h. Cells were then centrifuged and washed twice in cold PBS. Intracellular DNA was labeled with propidium iodide solution [propidium iodide […] (Sigma) and RNase […] (Thermo Scientific) in PBS] and incubated at 4°C for 30 min in the dark. Cell cycle was analyzed using flow cytometry and FACSDiva software (BD Biosciences, Heidelberg, Germany). As shown previously ([5]), pharmacological doses of ascorbate in the low millimolar-range induce cell death in human cancer cells. However, since in the latter publication we only performed end-point analyses 24 h after incubation of the cells with ascorbate, for the current project we exposed BLM cells to pharmacological 8 mM ascorbate for 1 h, and the cells were ethanol-fixed every 2 h for 24 h to closely monitor cell-cycle alterations at 2 h intervals over 24 h. The cell cycle was analyzed with FACS after staining of the cells with propidium iodide. […] At 12 h post ascorbate exposure only a small percentage of the BLM cells were shifted toward the sub-G1 fraction of cells. Therefore, the 12 h time point after ascorbate exposure was chosen for the following experiments.  Figure 2 Pharmacological ascorbate induces apoptosis in human metastatic BLM melanoma cells in a time-dependent manner. BLM cells were treated with 8 mM ascorbate for 1 h. Cells were ethanol-fixed every 2 h for 24 h, stained with propidium iodide, and cell cycle was analyzed with FACS. Depicted are the FACS plots for the untreated control cells and for 2, 4, 6, 8, 12, 16, 20, and 24 h after ascorbate exposure. […] Gray colored graphs indicate the control cells; black colored graphs (2–8 h) the initial shift into G2/M phase; red colored graphs (12–24 h) the subsequent shift into sub-G1 fraction.
# [1] = test system: human HDACs (HeLa nuclear extract); experiment: HDAC-inhibitor screening assay with HeLa nuclear extract; type: biochemical; conditions: 5–8000 μM, 2 h at 37°C
# Method: Determination of a possible HDAC-inhibitor activity of ascorbate was done by using the HDAC assay kit (Active Motif, Rixensart, Belgium). Ascorbate was diluted in assay buffer to the final concentrations of 5, 10, 20, 50, 100, 200 μM, and 8 mM. Assay was performed according to manufacturer’s protocol. Briefly, ascorbate was incubated with HeLa nuclear extract as a source of human HDACs for 2 h at 37°C and the developing time was set to 10 min. Each experiment was performed in triplicates and repeated three times.
# (A) Overall HDAC inhibition in cellular extracts of the human cell line HeLa by increasing concentrations of ascorbate (5–8000 μM). As reference inhibitor 100 μM suberoylanilide hydroxamic acid (SAHA) was used. Every concentration was tested three times in triplicates. (B) Specific fluorometric profiling assay using recombinant human HDACs of classes I, II, and IV. Specific inhibition values were generated for the treatment with 50 μM and 8 mM ascorbate. Inhibition values for every HDAC were yielded by two experiments, each performed in duplicates. Shown are mean ± SD. One-way ANOVA Dunnett’s multiple comparison test, n.s. indicates not significant.
# [2] = test system: human HDAC1, HDAC2, HDAC3, HDAC4, HDAC5, HDAC6, HDAC7, HDAC8, HDAC9, HDAC10, and HDAC11; experiment: HDAC-inhibitor profiling assay (fluorometric, recombinant HDACs of classes I, II, and IV); type: biochemical; conditions: 50 μM and 8 mM ascorbate
# Method: The HDAC profiling assay was performed on basis of fluorometric measurement by Scottish Biomedical (Scottish Biomedical, Glasgow, UK). The percentage inhibition values of 50 μM and 8 mM ascorbate against human HDAC1, HDAC2, HDAC3, HDAC4, HDAC5, HDAC6, HDAC7, HDAC8, HDAC9, HDAC10, and HDAC11 was determined. Both concentrations of ascorbate were tested in two experiments, each in duplicates.
# [3] = test system: DNA methyltransferase (DNMT) activity in MeWo melanoma cells; experiment: DNMT activity in nuclear extracts of treated MeWo cells; type: cell-based, human; conditions: 200 μM for 1 h, nuclear extract 12 h after treatment
# Method: (§1) DNMT activity was analyzed in the nuclear extracts with the DNMT activity/inhibition assay (Active Motif) according to the procedure described by the manufacturer.
# (§2) Global DNMT activity was determined in nuclear extracts of MeWo and BLM cells 12 h after 1 h treatment with 200 μM or 8 mM ascorbate.
# [4] = test system: DNA methyltransferase (DNMT) activity in BLM melanoma cells; experiment: DNMT activity in nuclear extracts of treated BLM cells; type: cell-based, human; conditions: 200 μM for 1 h, nuclear extract 12 h after treatment
# Method: as §1, §2
# [5] = test system: miRNA expression in BLM melanoma cells; experiment: miRNA expression chip analysis; type: cell-based, human
# Method: microRNA was isolated from BLM cells using the miRNeasy kit (Qiagen, Hilden, Germany) according to the procedure described by the manufacturer. miRNA expression analysis was performed on BLM melanoma cells (five groups: untreated; 200 μM, 8 mM ascorbate treated, 4 and 12 h after the 1 h treatment, all in triplicates) using the human miRNA Microarray Release 14.0, 8x15K (Agilent, Waldbronn, Germany) based on Sanger miRbase (release 14.0). Two hundred nanograms of RNA were used per sample. The miRNA expression analysis was kindly performed at the Genomic Core Facility of the European Molecular Biology Laboratory (EMBL, Heidelberg, Germany) according to the supplier’s instructions. Evaluation of raw data generated at the Genomic Core Facility of the EMBL was performed as described previously ([32]).
# Figure 6 Ascorbate alters the expression of miRNA in melanoma cells. A miRNA expression chip analysis was performed on human metastatic BLM melanoma cells (5 groups: untreated, 200 μM ascorbate, 8 mM ascorbate, both 4 and 12 h after ascorbate exposure; all in triplicates) using the human miRNA Microarray Release 14.0, 8x15K (Agilent Technologies) based on Sanger miRbase (release 14.0). A total of 151 miRNAs were differentially expressed in response to ascorbate.
# [6] = test system: 9 human melanoma cell lines; parameters: method as in PMID 24330097; conditions: ref [5], cited from earlier work
# [7] = test system: 60 cancer cell lines of the NCI60 panel; parameters: method as in PMID 24330097; conditions: ref [5], read-out: overall IC50 of all 60 cancer cell lines; cited from earlier work
# [8] = parameters: method as in PMID 23670640; conditions: i.v. administration of 70 g/m^2; ref [16]; cited from earlier work
# LOX-IMVI melanoma cells = test system: LOX-IMVI melanoma cells; parameters: method as in PMID 24330097; conditions: 8 mM, ref [5]; cited from earlier work
# [9] = test system: GLUT-1 expression (HIF-1α downstream target) in melanoma cell lines; parameters: method as in PMID 24330097; conditions: treatment at the individual IC50 concentrations, ref [5]; cited from earlier work
# [10] = 8 mM vs. 200 μM for 1 h, after 12 h
# [11] = 12 h after 1 h exposure, 8 mM vs. 200 μM ascorbate
structure (smiles),measurement,setting,value
"O=C1O[C@H]([C@@H](O)CO)C(O)=C1O [ascorbate, ascorbic acid]",G2/M fraction of cells,BLM melanoma cells; 2 to 8 h after exposure,steadily increased
same,sub-G1 fraction of DNA fragmented cells (indicative for apoptosis),BLM melanoma cells; 12 h post-treatment,prominent increase
same,cell cycle shift toward sub-G1 fraction,BLM melanoma cells; 20 h post-treatment,completely shifted toward the sub-G1 fraction
same,overall HDAC inhibition,[1],only a marginal inhibitory activity
same,inhibition of the 11 human HDACs,[2],neither the physiological 50 μM nor the pharmacologic 8 mM ascorbate showed a significant inhibition
same,increase of DNMT activity,[3],4%
same,increase of DNMT activity,[4],18%
same,number of miRNAs differentially expressed in response to ascorbate,"[5]; 200 μM or 8 mM for 1 h, 4 and 12 h after exposure",151
same,number of up-regulated miRNAs,[5]; [10],32
same,up-regulation of the 32 miRNAs,[5]; [10],4- to 38 fold
same,Up-regulation of hsa-miR-99b,[5]; [11],2.44 2 × log^2
same,Up-regulation of hsa-miR-125b-2,[5]; [11],2.8 2 × log^2
same,Up-regulation of hsa-miR-134,[5]; [11],2.15 2 × log^2
same,Up-regulation of hsa-miR-135a,[5]; [11],2.45 2 × log^2
same,Up-regulation of hsa-miR-339-3p,[5]; [11],2.47 2 × log^2
same,Up-regulation of hsa-miR-345,[5]; [11],2.82 2 × log^2
same,Up-regulation of hsa-miR-375,[5]; [11],3.65 2 × log^2
same,Up-regulation of hsa-miR-422a,[5]; [11],4.29 2 × log^2
same,Up-regulation of hsa-miR-490-5p,[5]; [11],3.91 2 × log^2
same,Up-regulation of hsa-miR-516a-3p,[5]; [11],2.56 2 × log^2
same,Up-regulation of hsa-miR-564,[5]; [11],3.28 2 × log^2
same,Up-regulation of hsa-miR-583,[5]; [11],3.97 2 × log^2
same,Up-regulation of hsa-miR-596,[5]; [11],5.26 2 × log^2
same,Up-regulation of hsa-miR-614,[5]; [11],2.61 2 × log^2
same,Up-regulation of hsa-miR-617,[5]; [11],2.33 2 × log^2
same,Up-regulation of hsa-miR-629,[5]; [11],3.38 2 × log^2
same,Up-regulation of hsa-miR-630,[5]; [11],4.3 2 × log^2
same,Up-regulation of hsa-miR-654-5p,[5]; [11],3.39 2 × log^2
same,Up-regulation of hsa-miR-662,[5]; [11],3.59 2 × log^2
same,Up-regulation of hsa-miR-663,[5]; [11],2.05 2 × log^2
same,Up-regulation of hsa-miR-708,[5]; [11],3.48 2 × log^2
same,Up-regulation of hsa-miR-718,[5]; [11],2.97 2 × log^2
same,Up-regulation of hsa-miR-887,[5]; [11],5.14 2 × log^2
same,Up-regulation of hsa-miR-1181,[5]; [11],2.06 2 × log^2
same,Up-regulation of hsa-miR-1225-5p,[5]; [11],2.38 2 × log^2
same,Up-regulation of hsa-miR-1228,[5]; [11],2.24 2 × log^2
same,Up-regulation of hsa-miR-1246,[5]; [11],2.13 2 × log^2
same,Up-regulation of hsa-miR-1268,[5]; [11],2.84 2 × log^2
same,Up-regulation of hsa-miR-1915,[5]; [11],2.22 2 × log^2
same,Up-regulation of hsa-miR-1972,[5]; [11],2.22 2 × log^2
same,Up-regulation of hsa-miR-1973,[5]; [11],3.08 2 × log^2
same,Up-regulation of hsa-miR-2117,[5]; [11],2.65 2 × log^2
same,IC50 for all melanoma cell lines,[6]; NCI60 melanoma cell lines,low millimolar range
same,pIC50,"[6]; NCI60 melanoma cell lines, read-out: IC50 for all melanoma cell lines",2.51
same,pIC50,"[6]; NCI60 melanoma cell lines, read-out: IC50 range across melanoma cell lines",2.07 to 3.70
same,cytotoxic effect on melanoma cells,[6]; physiological ascorbate (200 μM),no cytotoxic effect
same,pIC50,[7],2.35
same,blood peak concentration,[8],up to 49 mM
same,intracellular peroxide radicals,LOX-IMVI melanoma cells,high amount
same,percentage of sub-G1 (apoptotic) cells determined by FACS,LOX-IMVI melanoma cells,increased percentage
same,GLUT-1 expression,[9],decreased
